Test results as given in patent US20100093060A1, “GROWTH OF MICROORGANISMS IN CELLULOSIC MEDIA” (priority 2008, published 2010).
Residues, ends and D or L forms follow the SMILES beside them.

Legend:
[1] = Determination of Critical Micelle Concentration (surface tension, Wilhelmy plate); type: physicochemical; conditions: triple distilled water, pH 10, 25±1° C.
Protocol: Determination of Critical Micelle Concentration. […] Surface tension was measured at 25±1° C. using the Wilhelmy plate technique with a sandblasted platinum plate as the sensor coupled to a Cahn microbalance. The entire assembly was kept in a draft-free plastic cage at a temperature of 25±1° C.

[2] = tested on: Gram-negative and Gram-positive bacteria; conditions: minimal antibacterial effects; typical range; cited from earlier work

SMILES	Critical Micelle Concentration (CMC) [1] [mM]	minimum inhibitory concentration (MIC) [2] [µg/mL]
CCCCCCCCCCCCCC(=O)N[C@@H](CCC(=O)O)C(=O)O [myristoyl glutamate]	14.1	
CCCCCCCCCCCC(O)CC(=O)N[C@@H](CCC(=O)O)C(=O)O (stereo partly drawn) [FA-Glu, β-hydroxy myristoyl glutamate]	1.3	
CC(C)CCCCCCCCC[C@@H]1CC(=O)N[C@@H](CCC(=O)O)C(=O)N[C@@H](CC(C)C)C(=O)N[C@H](CC(C)C)C(=O)N[C@@H](C(C)C)C(=O)N[C@@H](CC(=O)O)C(=O)N[C@H](CC(C)C)C(=O)N[C@@H](CC(C)C)C(=O)O1 [surfactin] (HELM PEPTIDE1{E.L.[dL].V.D.[dL].L}|CHEM1{[CC(C)CCCCCCCCC[C@H](CC(=O)[*:1])O[*:2]]}$PEPTIDE1,CHEM1,1:R1-1:R1|PEPTIDE1,CHEM1,7:R2-1:R2$$$V2.0)		12 to 50
